Reference: patent US20070207145A1, “MOUSE/HUMAN […] ANTI-PHE[…] AND USES THEREOF” (BOARD OF TRUSTEES OF THE UNIVERSITY OF ARKANSAS, priority 2003, published 2007)

Legend:
[1] = system: PCP receptor; conditions: drug discrimination and PCP receptor binding assays; cited from earlier work
[2] = system: PCP's adverse health effects; assay: dose-dependent effects of mAb6B5 IgG on health and behavior of rats continuously infused with PCP; type: in vivo
Experimental: This series of experiments assessed the dose-dependent effects mAb6B5 IgG on measures of health and behavior (Laurenzana et al., 2003). Rats were implanted with s.c. osmotic minipumps filled to deliver PCP at a rate of 18 mg/kg/day. Baseline PCP-induced locomotor activity was assessed (24 hr after start of PCP infusion), and then saline or various doses of mAb6B5 IgG were administered i.v. The doses of mAb6B5 ranged from 1 mol-eq of serum PCP concentration at steady state (1.53 g/kg of mAb6B5 IgG), down to 0.003 mol-eq (0.005 g/kg).
On a daily basis, rats were assessed on the amount of food eaten, body weight, general health, and evidence of chromodacryorrhea (“bloody tears” or red lacrimal secretions), an indicator of PCP-induced stress. […] The dose-dependent effects of mAb6B5 IgG on body weight produced some of the most interesting and profound effects (FIG. 8). […] PCP-induced reductions in feeding and drinking behavior obviously contributed to the weight loss in these groups. But their eating behavior normalized by day 4, probably secondary to the development of tolerance to the drug. This allowed these rats to better maintain their health and well-being. […] The PCP-induced weight loss achieved maximum on about day 4 of the experiment. […] 25% of the rats died or had to be sacrificed for humane reasons. […]

[3] = in humans; cited from earlier work
[4] = rats, s.c. infusion 18 mg/kg/day; cited from earlier work
[5] = radioimmunoassay (RIA) with [3H]PCP; type: binding
Experimental: A 100 μl aliquot of [^3H]PCP (30,000-40,000 dpm) in RIA buffer (50 mM Tris-HCl adjusted to pH 7.6, 0.15M NaCl, 0.1% BSA and 0.2% NaN3) was added to 50×14 mm sample tubes (Sarsedt, Princeton, N.J.). Then 100 γl of appropriate concentration of test ligand was added to duplicate tubes. […] A 100 μl aliquot of this dilution was then added to all tubes except the tubes for non-specific binding. To nonspecific binding tubes 100 μl of RIA buffer was added. After vortex mixing, the tubes were incubated at 4-8° C. overnight. Next, 1 ml of RIA buffer containing 5% goat anti-mouse IgG (Pel-Freez Biologicals, Rogers, Ark.) and 5% polyethylene glycol 8000 (J. T. Baker Chemical Co.) was added. The tubes were incubated for 15 min at 4-8° C. and centrifuged at the same temperature for 15 min at 2000×g to precipitate the antibody-bound reactivity. The supernatant fluid was aspirated and the pellet was resuspended in the same test tube with 2 ml of scintillation fluid (Liquiscint, National Diagnostics, Manville, N.J.). The tube was placed in a 7 ml scintillation vial and the concentration of [^3H]PCP was determined by liquid scintillation spectrometry.
The IC50 for both methods very closely approximates the affinity of an antibody.

In the case of `CCNC1(c2ccccc2)CCCCC1` [PCE, N-ethyl-1-phenylcyclohexylamine], the “potency relative to PCP (times more potent)” value [1] is listed as about 6 times.

For `c1ccc(C2(N3CCCCC3)CCCCC2)cc1` [PCP, Phencyclidine], the “rats that died or had to be sacrificed” value ([2]; PCP-saline and PCP-0.003 mol Eq groups, days 4 through 7, 18 mg/kg/day) is given as 25%, the “animals that died as a result of PCP administration” value ([2]; repeated PCP-saline control experiment) is given as 1 of 4 and the “volume of distribution (Vd)” value [3] is given as 6.2 L/kg. The “half-life (t1/2)” value [4] was 4 h.

For `c1csc(C2(N3CCCCC3)CCCCC2)c1` [TCP, 1-[1-(2-thienyl)cyclohexyl]piperidine], the “potency relative to PCP (times more potent)” value [1] is given as “about 1.3 times”.

B1: ch-mAb6B5: mouse/human chimeric anti-PCP monoclonal antibody: mAb6B5 variable domains on human IgG2 heavy chain and kappa light chain constant domains (antibody)
heavy: MECSCVMLFLLSGTAGVLSEVQLQQSGPELVKPGASVKMSCKASGYTGTDYYIHWMKQSHGKSLEWIGYIYPNNGGNGYNQKFKGKATLTVDKSSSTAYMELRTLTSEDSAVYYCGRSTWDDFDYWGQGTTLTVSSASTKGPSVFPLAPCSRSTSESTAALGCLVKDYFPEPVTVSWNSGALTSGVHTFPAVLQSSGLYSLSSVVTVPSSNFGTQTYTCNVDHKPSNTKVDKTVERKCCVECPPCPAPPVAGPSVFLFPPKPKDTLMISRTPEVTCVVVDVSHEDPEVQFNWYVDGVEVHNAKTKPREEQFNSTFRVVSVLTVVHQDWLNGKEYKCKVSNKGLPAPIEKTISKTKGQPREPQVYTLPPSREEMTKNQVSLTCLVKGFYPSDIAVEWESNGQPENNYKTTPPMLDSDGSFFLYSKLTVDKSRWQQGNVFSCSVMHEALHNHYTQKSLSLSPGK
light: MKLPVRLLVLMFWIPASSSDVLMTQTPLSLPVSLGDQASISCRSSQTIVHSNGNTYLEWYLQKPGQSPKLLIYKVSNRFSGVPDRFSGSGSGTDFTLKISRVEAEDLGVYYCFQGTHAPYTFGGGTKLEIKTAAAPSVFIFPPSDEQLKSGTASVVCLLNNFYPREAKVQWKVDNALQSGNSQESVTEQDSKDSTYSLSSTLTLSKADYEKHKVYACEVTHQGLSSPVTKSFNRGEC
modifications: Amino acid sequence of anti-PCP ch-mAb6B5 heavy chain.; Amino acid sequence of anti-PCP ch-mAb6B5 light chain.
For B1, the IC50 [5] was 1.6 nM and the Kd ([5]; chimeric antibody) was 1.6 nM.
